Test results: patent publication US20110184188A1, “Insecticidal Benzenedicarboxamide Derivative” (priority 2008, published 2011)

test: logP(acid) by reverse phase (C18) chromatography at pH 2.3; format: physicochemical; conditions: pH 2.3

chromatographic logP | SMILES
3.38 | Cc1cc(Cn2nc(C(F)(F)F)nc2C(F)(F)F)ncc1[N+](=O)[O-] [SYNTHESIS EXAMPLE 69-1]
2.83 | Cc1nc(Cn2nc(C(F)(F)C(F)(F)F)cc2C(F)(F)C(F)(F)F)ccc1N [SYNTHESIS EXAMPLE 81-2]
2.64 | Cc1nc(Cn2cc(C(F)(F)C(F)(F)F)c(C(F)(F)C(F)(F)F)n2)ccc1N [SYNTHESIS EXAMPLE 82-2]
2.85 | Cc1nc(Cn2nnc(C(F)(F)F)n2)ccc1[N+](=O)[O-] [SYNTHESIS EXAMPLE 85-1]

same assay, conditions: pH 2.3; reverse phase (C18) chromatography, pH2.3, 0.1% phosphoric acid / acetonitrile gradient 10-95%; read-out: logP (acid)

SMILES | chromatographic logP
Cc1nc(Cn2cnc(C(F)(F)C(F)(F)C(F)(F)F)n2)ccc1N [SYNTHESIS EXAMPLE 84-2] | 1.52

same assay, conditions: reverse phase (C18) chromatography column, pH 2.3; reverse phase (C18) chromatography, pH2.3, 0.1% phosphoric acid / acetonitrile gradient 10-95%; read-out: logP (acid)

chromatographic logP | SMILES
1.49 | Cc1cc(COS(C)(=O)=O)ncc1[N+](=O)[O-] [SYNTHESIS EXAMPLE 68-1]
3.64 | Cc1cc(Cn2nc(C(F)(F)F)cc2C(F)(F)F)ncc1[N+](=O)[O-] [SYNTHESIS EXAMPLE 68-2]
4.68 | Cc1nc(Cn2nc(C(F)(F)C(F)(F)F)cc2C(F)(F)C(F)(F)F)ccc1[N+](=O)[O-] [SYNTHESIS EXAMPLE 81-1]
4.5 | Cc1nc(Cn2cc(C(F)(F)C(F)(F)F)c(C(F)(F)C(F)(F)F)n2)ccc1[N+](=O)[O-] [SYNTHESIS EXAMPLE 82-1]
0.55 | Cc1nc(Cn2cnc(C(F)(F)C(F)F)n2)ccc1N [SYNTHESIS EXAMPLE 83-2]
1.18 | Cc1nc(Cn2nnc(C(F)(F)F)n2)ccc1N [SYNTHESIS EXAMPLE 85-2]

same assay, conditions: reverse phase (C18) chromatography, pH 2.3

logP (acid) | SMILES
logP (acid) 3.46 | CC(=O)CC(C)NC(=O)c1c(Br)cccc1C(=O)Nc1ccc(Cn2nc(C(F)(F)C(F)(F)F)nc2C(F)(F)F)cc1C (centres unmarked) [14-296]
logP (acid) 3.70 | CC(=O)CC(C)NC(=O)c1c(I)cccc1C(=O)Nc1ccc(Cn2nc(C(F)(F)C(F)(F)F)nc2C(F)(F)F)cc1C (centres unmarked) [14-297]
logP (acid) 3.08 | CC(=O)OC[C@H](C)NC(=O)c1c(Cl)cccc1C(=O)Nc1ccc(Cn2nc(C(F)(F)F)nc2C(F)(F)F)cc1C [14-298]
logP (acid) 3.84 | CSC[C@H](C)NC(=O)c1c(Br)cncc1C(=O)Nc1ccc(Cn2nc(C(F)(F)C(F)(F)F)nc2C(F)(F)F)cc1C [14-300]
logP (acid) 2.48 | CSC[C@H](C)NC(=O)c1c(Br)cccc1C(=O)Nc1ccc(Cn2cnc(C(F)(F)C(F)F)n2)nc1C [14-302]
logP (acid) 4.08 | CSC[C@H](C)NC(=O)c1c(Cl)cccc1C(=O)Nc1ccc(Cn2nnc(-c3ccc(C(F)(F)F)cc3)n2)cc1C [14-305]
logP (acid) 2.91 | CSC[C@H](C)NC(=O)c1c(Cl)cccc1C(=O)Nc1ccc(Cn2nnc(C(F)(F)F)n2)nc1C [14-306]
logP (acid) 3.71 | CSC[C@H](C)NC(=O)c1c(Cl)cccc1C(=O)Nc1ccc(Cn2nnc(C(F)(F)C(F)(F)C(F)(F)F)n2)nc1C [14-307]
logP (acid) 2.38 | CSC[C@H](C)NC(=O)c1c(Cl)cccc1C(=O)Nc1ccc(Cn2cnc(C(F)(F)C(F)F)n2)nc1C [14-309]
logP (acid) 3.16 | CSC[C@H](C)NC(=O)c1c(Cl)cccc1C(=O)Nc1ccc(Cn2cnc(C(F)(F)C(F)(F)C(F)(F)F)n2)nc1C [14-310]
logP (acid) 3.45 | CSC[C@H](C)NC(=O)c1c(Cl)cccc1C(=O)Nc1ccc(Cn2nc(C(F)(F)C(F)F)nc2C(F)(F)F)nc1C [14-311]
logP (acid) 1.37 | Cc1nc(Cn2nc(C(F)(F)F)n(C)c2=O)ccc1NC(=O)c1cccc(Cl)c1C(=O)N[C@@H](C)C[S+](C)[O-] (some centres unmarked) [14-321]
logP (acid) 1.60 | Cc1nc(Cn2nc(C(F)(F)F)n(C)c2=O)ccc1NC(=O)c1cccc(Cl)c1C(=O)N[C@@H](C)CS(C)(=O)=O [14-322]
logP (acid) 2.57 | CSC[C@H](C)NC(=O)c1c(Cl)cccc1C(=O)Nc1ccc(Cn2nc(C(F)(F)F)n(C3CC3)c2=O)nc1C [14-323]
logP (acid) 3.68 | CSC[C@H](C)NC(=O)c1c(Cl)cccc1C(=O)Nc1ccc(Cn2nc(C(F)(F)C(F)(F)F)n(C(F)F)c2=O)cc1C [14-328]
logP (acid) 2.5 | Cc1cc(Cn2nc(C(F)(F)C(F)(F)F)n(C(F)F)c2=O)ccc1NC(=O)c1cccc(Cl)c1C(=O)N[C@@H](C)C[S+](C)[O-] (some centres unmarked) [14-329]
logP (acid) 2.85 | Cc1cc(Cn2nc(C(F)(F)C(F)(F)F)n(C(F)F)c2=O)ccc1NC(=O)c1cccc(Cl)c1C(=O)N[C@@H](C)CS(C)(=O)=O [14-330]
logP (acid) 3.75 | CSC[C@H](C)NC(=O)c1c(Br)cccc1C(=O)Nc1ccc(Cn2nc(C(F)(F)C(F)(F)F)n(C(F)F)c2=O)cc1C [14-331]
logP (acid) 3.11 | CSC[C@H](C)NC(=O)c1c(I)cccc1C(=O)Nc1ccc(Cn2nc(C(F)(F)C(F)(F)F)n(C(F)F)c2=O)cc1C [14-334]
logP (acid) 3.22 | Cc1cc(Cn2nnc(-c3ccc(C(F)(F)F)cc3)n2)ccc1NC(=O)c1cccc(Br)c1C(=O)N[C@@H](C)CS(C)(=O)=O [14-348]
logP (acid) 3.23 | Cc1cc(Cn2nnc(-c3ccc(C(F)(F)F)cc3)n2)ccc1NC(=O)c1cccc(Cl)c1C(=O)N[C@@H](C)CS(C)(=O)=O [14-349]
logP (acid) 3.11 | CSC[C@H](C)NC(=O)c1c(Cl)cccc1C(=O)Nc1ccc(Cn2nc(C(F)(F)F)nc2NC(=O)C(F)(F)F)cc1C [14-353]
logP (acid) 3.79 | Cc1cc(Cn2nc(C(F)(F)C(F)(F)F)nc2C(F)(F)F)ccc1NC(=O)c1cccc(Cl)c1C(=O)NC(C)CC1(C)OCCCO1 (centres unmarked) [14-357]
logP (acid) 3.95 | Cc1cc(Cn2nc(C(F)(F)C(F)(F)F)nc2C(F)(F)F)ccc1NC(=O)c1cccc(I)c1C(=O)NC(C)CC1(C)OCCCO1 (centres unmarked) [14-358]

logP (acid) | SMILES
logP (acid) 4.06 | Cc1cc(Cn2nc(C(F)(F)C(F)(F)F)nc2C(F)(F)F)ccc1NC(=O)c1cccc(Br)c1C(=O)NC(C)CC1(C)OCCCO1 (centres unmarked) [14-359]
logP (acid) 3.86 | Cc1cc(Cn2nc(C(F)(F)C(F)(F)F)nc2C(F)(F)F)ccc1NC(=O)c1cccc(Cl)c1C(=O)NC(C)CC1(C)OCCO1 (centres unmarked) [14-360]
logP (acid) 3.95 | Cc1cc(Cn2nc(C(F)(F)C(F)(F)F)nc2C(F)(F)F)ccc1NC(=O)c1cccc(I)c1C(=O)NC(C)CC1(C)OCCO1 (centres unmarked) [14-361]
logP (acid) 3.92 | Cc1cc(Cn2nc(C(F)(F)C(F)(F)F)nc2C(F)(F)F)ccc1NC(=O)c1cccc(Br)c1C(=O)NC(C)CC1(C)OCCO1 (centres unmarked) [14-362]
logP (acid) 4.03 | CO/N=C(\C)CC(C)NC(=O)c1c(Br)cccc1C(=O)Nc1ccc(Cn2nc(C(F)(F)C(F)(F)F)nc2C(F)(F)F)cc1C (centres unmarked) [14-363]
logP (acid) 2.98 | CSC[C@H](C)NC(=O)c1c(C(=O)Nc2ccc(Cn3nc(C(F)(F)F)nc3C(F)(F)F)nc2C)cccc1S(C)(=O)=O [14-364]
logP (acid) 3.30 | CSC[C@H](C)NC(=O)c1c(C(=O)Nc2ccc(Cn3nc(C(F)(F)F)nc3C(F)(F)F)nc2C)cccc1S(=O)(=O)N(C)C [14-365]
logP (acid) 2.07 | Cc1nc(Cn2nc(C(F)(F)F)nc2C(F)(F)F)ccc1NC(=O)c1cccc(S(C)(=O)=O)c1C(=O)N[C@@H](C)C[S+](C)[O-] (some centres unmarked) [14-366]
logP (acid) 2.25 | Cc1nc(Cn2nc(C(F)(F)F)nc2C(F)(F)F)ccc1NC(=O)c1cccc(S(=O)(=O)N(C)C)c1C(=O)N[C@@H](C)C[S+](C)[O-] (some centres unmarked) [14-367]
logP (acid) 2.43 | Cc1nc(Cn2nc(C(F)(F)F)nc2C(F)(F)F)ccc1NC(=O)c1cccc(S(C)(=O)=O)c1C(=O)N[C@@H](C)CS(C)(=O)=O [14-368]
logP (acid) 2.72 | Cc1nc(Cn2nc(C(F)(F)F)nc2C(F)(F)F)ccc1NC(=O)c1cccc(S(=O)(=O)N(C)C)c1C(=O)N[C@@H](C)CS(C)(=O)=O [14-369]
logP (acid) 3.88 | CSC[C@H](C)NC(=O)c1c(C(=O)Nc2ccc(Cn3nc(C(F)(F)C(F)(F)F)nc3C(F)(F)F)cc2C)cccc1S(=O)(=O)N(C)C [14-384]
logP (acid) 4.33 | CSC[C@H](C)NC(=O)c1c(SC)cccc1C(=O)Nc1ccc(Cn2nc(C(F)(F)C(F)(F)F)nc2C(F)(F)C(F)(F)F)nc1C [14-387]
logP (acid) 3.53 | CSC[C@H](C)NC(=O)c1c(SC)cccc1C(=O)Nc1ccc(Cn2nc(C(F)(F)C(F)(F)F)n(C(F)F)c2=O)cc1C [14-389]
logP (acid) 3.34 | CSC[C@H](C)NC(=O)c1c(C(=O)Nc2ccc(Cn3nc(C(F)(F)C(F)(F)F)nc3C(F)(F)F)nc2C)cccc1S(C)(=O)=O [14-393]
logP (acid) 2.39 | Cc1nc(Cn2nc(C(F)(F)C(F)(F)F)nc2C(F)(F)F)ccc1NC(=O)c1cccc(S(C)(=O)=O)c1C(=O)N[C@@H](C)C[S+](C)[O-] (some centres unmarked) [14-394]
logP (acid) 3.13 | Cc1cc(Cn2nc(C(F)(F)C(F)(F)F)nc2C(F)(F)F)ccc1NC(=O)c1cccc(S(=O)(=O)N(C)C)c1C(=O)N[C@@H](C)CS(C)(=O)=O [14-395]
logP (acid) 2.76 | Cc1nc(Cn2nc(C(F)(F)C(F)(F)F)nc2C(F)(F)F)ccc1NC(=O)c1cccc(S(C)(=O)=O)c1C(=O)N[C@@H](C)CS(C)(=O)=O [14-396]
logP (acid) 3.49 | CSC[C@H](C)NC(=O)c1c(SC)cccc1C(=O)Nc1ccc(Cn2nc(C(F)(F)C(F)F)nc2C(F)(F)F)nc1C [14-397]
logP (acid) 3.54 | CSC[C@H](C)NC(=O)c1c(C(=O)Nc2ccc(Cn3nc(C(F)(F)F)nc3C(F)(F)F)cc2C)cccc1S(=O)(=O)N(C)C [14-414]
logP (acid) 3.3 | CSC[C@H](C)NC(=O)c1c(SC)cccc1C(=O)Nc1cnc(Cn2nc(C(F)(F)F)nc2C(F)(F)F)cc1C [14-415]
logP (acid) 2.79 | CSC[C@H](C)NC(=O)c1c(Cl)cccc1C(=O)Nc1ccc(Cn2nc(C(F)(F)C(F)(F)F)n(N)c2=O)cc1C [14-421]
logP (acid) 1.82 | Cc1cc(Cn2nc(C(F)(F)C(F)(F)F)n(N)c2=O)ccc1NC(=O)c1cccc(Cl)c1C(=O)N[C@@H](C)C[S+](C)[O-] (some centres unmarked) [14-422]
logP (acid) 2.13 | Cc1cc(Cn2nc(C(F)(F)C(F)(F)F)n(N)c2=O)ccc1NC(=O)c1cccc(Cl)c1C(=O)N[C@@H](C)CS(C)(=O)=O [14-423]
